The structures appear in SMILES notation. Values after ≈ are worked out from the molar mass of the structure shown.

Experiment [1] relates to TNF-α mRNA expression in RBL-2H3 cells. The experiment in a line: Validation test in RBL-2H3 cell: TNF-α mRNA expression by antigen stimulation (Real-time PCR). The class given is cell-based, Rat. The note with it: for TNF-α mRNA expression level: untreated control as 100. The procedure:
2. Validation Test in RBL-2H3 Cell
(Effect on Inflammation Mediator mRNA Expression by Antigen Stimulation)
After a cell model for an allergic reaction, RBL-2H3 cells, were stimulated by an antigen, mRNA expression level of a typical inflammation mediator, TNF-α, in the cell was measured by a Real-time PCR method. In this manner, a confirmation test for anti-inflammatory effect of Compound 3 was performed.
A test substance (Compound 3) (50 mg) was dissolved by adding 50 vol % ethanol (1 mL) to this to obtain an ethanol solution having a concentration of 50 mg/mL. The resultant solution was diluted with a medium. […] As a control (for comparison), Wortmannin (10 μM) was used. Herein, the concentrations were all indicated as the concentrations in cell supernatants.
RBL-2H3 cells were sensitized with anti-DNP-IgE antibody for 2 hours. A medium or a test solution was added and heat was applied at 37° C. for 10 minutes and then, a DNP-HSA solution was added. A reaction was carried out at 37° C. for 30 minutes. After completion of the reaction, total RNA was extracted from a cell fraction and cDNA was synthesized by use of Random Primer and Reverse Transcriptase. After a specific primer for a desired gene (ITNF-α,β-actin) was added, a Real-time PCR method was carried out in accordance with SYBR Green method using the resultant cDNA as a template to determine the expression level of mRNA. The expression ratio of the desired gene relative to a housekeeping gene, β-actin, was calculated. In this manner, a change in expression level relative to an untreated control was calculated.
Main test conditions and outline of the operation will be described below.
Cell: Rat basophil leukemic cell, RBL-2H3 [Human Sciences Foundation]
Antigen stimulation: Anti-DNP-IgE antibody, DNP labeled albumin
[Sigma-Aldrich Corporation]
Desired genes: IL-4, MCP-1, TNF-α, β-actin (housekeeping gene)
Measurement apparatus: StepOnePlus Real-Time PCR System [Life
Technologies Corporation] Measurement conditions: 95° C. (20 sec)→{95° C. (3 sec)→60° C. (30 sec)}×40 cycles
mRNA expression level (%) was obtained based on the expression level of the untreated control as 100.
A general note: In qPCR the cycle at which signal appears reflects the starting amount.

The subject of experiment [2] is Trichophyton mentagrophytes NBRC5466 (trichophyton). As to the kind of experiment: Antifungal test, minimum inhibitory concentration (MIC), trichophyton. It counts as cell-based. The settings on record: NBRC5466, 168 h, 27±2° C., 7 days. The procedure: Antimicrobial/Antifungal Test
Measurement of the Minimum Inhibitory Concentration (MIC) of a Test Substance
The minimum inhibitory concentration (MIC) of test substances (Compound 3, Compound 7) on a microorganism was measured.
1) Test Microbe (a) Staphylococcus aureus MRSAIID 1677 (methicillin-resistant staphylococcus aureus; MRSA) (b) Trichophyton mentagrophytes NBRC5466 (trichophyton)
2) Preparation of Microbe Solution for Inoculation
Test microbe (b): A strain cryopreserved was applied on PDA medium and cultured at 27±2° C. for 7 days. Spores were scraped out and suspended in a test microbe preparation solution, filtered with absorbent cotton. The solution was prepared so as to have a number of spores of about 10^6 CFU/mL. The test microbe solution prepared was serially diluted by 10-fold and cultured at 27±2° C. for 7 days and then the microbe cells were counted.
3) Serial Dilution of Test Substance
Two-fold serial dilutions of a test substance were prepared in the following procedure. To a test substance (1 mg), a medium (5 mL) for measuring the sensitivity of each microbe strains was added to obtain a stock solution of 200 μg/mL. […]
A test microbe solution (5 μL) was added dropwise to individual wells of the microplate. […] After culture, whether the microbe proliferated or not was determined by the naked eye. […]

As to `O=C(Nc1ccc(S(F)(F)(F)(F)F)cc1)c1cc(O)c(O)c(O)c1` [Compound 3, 4-(3,4,5-trihydroxybenzoylamino)pentafluorosulfanylbenzene], in experiment [1] (RBL-2H3 cells, antigen stimulation), the “suppression of TNF-α mRNA expression” value is on record as “Suppression of the mRNA expression TNF-α, one of inflammatory mediators, was confirmed”. Besides, the “TNF-α mRNA expression level” value in experiment [1] (sample 1 μg/mL) is reported as 87%; in experiment [1] (sample 10 μg/mL), 69%.
The term MIC denotes the smallest concentration in the dilution series that meets the test's criterion for growth inhibition. A lower MIC goes with a more susceptible organism. Compound `O=C(Oc1ccc(S(F)(F)(F)(F)F)cc1)c1cc(O)c(O)c(O)c1` [Compound 7, 4-(3,4,5-trihydroxybenzoyloxy)pentafluorosulfanylbenzene] registered a minimum inhibitory concentration (MIC) in experiment [2] of 6.3 µg/mL (≈ 16.9 µM).

The record behind these values is patent US9682931B2, “Aryloyl(oxy or amino)pentafluorosulfanylbenzene compound, pharmaceutically acceptable salt thereof, and prodrugs thereof” (UBE INDUSTRIES, LTD., priority 2013, dated 2017).
